Data reported in patent publication US8735406B2, “8-oxodihydropurine derivative” (Dainippon Sumitomo Pharma Co., Ltd., priority 2009, dated 2014).
Where two headings read alike, the source gives them in different places.

Biological target: T1, FAAH (Rattus norvegicus, UniProt P97612)
T1 construct: Preparation of Rat Brain Membranes Preparations (FAAH Enzyme Solution); from tissue; host or cells: rat cerebrum (brain membrane preparation)
T1 sequence (P97612 1-579): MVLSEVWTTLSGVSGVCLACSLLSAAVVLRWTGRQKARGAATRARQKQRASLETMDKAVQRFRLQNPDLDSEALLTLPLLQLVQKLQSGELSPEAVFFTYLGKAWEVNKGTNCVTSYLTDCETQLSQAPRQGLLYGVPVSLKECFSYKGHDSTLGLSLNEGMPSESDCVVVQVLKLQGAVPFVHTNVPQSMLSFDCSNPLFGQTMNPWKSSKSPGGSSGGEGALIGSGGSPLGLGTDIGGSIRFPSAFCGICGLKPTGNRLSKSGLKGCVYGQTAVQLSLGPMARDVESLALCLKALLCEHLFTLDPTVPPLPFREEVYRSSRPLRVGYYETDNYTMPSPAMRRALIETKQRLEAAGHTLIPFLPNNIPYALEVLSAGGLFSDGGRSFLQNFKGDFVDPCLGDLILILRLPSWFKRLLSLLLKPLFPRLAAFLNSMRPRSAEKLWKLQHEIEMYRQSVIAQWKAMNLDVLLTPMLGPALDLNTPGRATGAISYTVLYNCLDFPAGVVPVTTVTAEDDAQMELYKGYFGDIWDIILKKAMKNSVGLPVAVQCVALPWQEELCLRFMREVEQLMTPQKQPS
Experiment: Determination of FAAH inhibitory activity in rat (rat brain membrane preparations, [3H]-anandamide hydrolysis)
Format: biochemical
In short: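 Compounds tested from 0.1 nM to 1 μM to derive IC50 against FAAH hydrolysis in rat brain membrane preparations (100 μg/mL). A 10-min 37 °C preincubation was followed by 10 min with [3H]-anandamide (2 nM) mixed with 2 μM unlabelled anandamide. Radioactive ethanolamine was extracted into the water/methanol layer and counted.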

[1] = rat brain membrane preparations, 100 nM test substance, read-out: FAAH Inhibition, Inhibition Rate at 100 nM
[2] = rat brain membrane preparations, test substance 0.1 nM to 1 μM, read-out: FAAH Inhibition IC50
[3] = at 100 nM, rat brain membrane preparations, read-out: FAAH Inhibition Inhibition Rate at 100 nM
[4] = rat brain membrane preparations, read-out: FAAH Inhibition IC50

Row | Structure (SMILES) | inhibition at 0.1 µM [1] | IC50 [2] | also measured
1 | Cn1c(=O)n(C(=O)N2CCC(c3ccccc3)CC2)c2cnc(-c3ccccc3)nc21 [Example 33, 9-Methyl-2-phenyl-7-[(4-phenylpiperidin-1-yl)carbonyl]-7,9-dihydro-8H-purine-8-one] | 91% | 47 nM | –
2 | COc1cccc(-c2ncc3c(n2)n(C)c(=O)n3C(=O)N(C)C)c1 [Example 48, 2-(3-Methoxyphenyl)-N,N,9-trimethyl-8-oxo-8,9-dihydro-7H-purine-7-carboxamide] | 100% | 4 nM | –
3 | Cn1c(=O)n(C(=O)N2CC(c3cccc(F)c3)C2)c2nc(C3CC3)ncc21 [Example 632] | – | – | inhibition at 0.1 µM [3]: 84%; IC50 [4]: 31 nM
4 | CCc1cccc(OCc2ncc3c(n2)n(C(=O)N(C)C)c(=O)n3C)c1 [Example 413] | 98% | 3 nM | –
5 | CN(C)C(=O)n1c(=O)n(C)c2cnc(CCC3CCCCC3)nc21 [Example 615] | – | – | inhibition at 0.1 µM [3]: 96%; IC50 [4]: 10 nM
6 | CN(C)C(=O)n1c(=O)n(C)c2cnc(COc3cccc(OC(F)(F)F)c3)nc21 [Example 423] | 112% | 3 nM | –
7 | COc1ccc(CN(C)C(=O)n2c(=O)n(C)c3nc(-c4cccc(OC)c4)ncc32)cc1 [Example 80, N-(4-Methoxybenzyl)-2-(3-methoxyphenyl)-N,9-dimethyl-8-oxo-8,9-dihydro-7H-purine-7-carboxamide] | 92% | 44 nM | –
8 | CN(C)C(=O)n1c(=O)n(C)c2nc(-c3cccnc3)ncc21 [Example 143, N,N,9-Trimethyl-8-oxo-2-(pyridin-3-yl)-8,9-dihydro-7H-purine-7-carboxamide] | 100% | 15 nM | –
9 | Cn1c(=O)n(C(=O)N2CCCC2)c2cnc(Cc3ccc(F)cc3F)nc21 [Example 266, 2-(2,4-Difluorobenzyl)-9-methyl-7-(pyrrolidin-1-ylcarbonyl)-7,9-dihydro-8H-purine-8-one] | 92% | 41 nM | –
10 | CN(C(=O)n1c(=O)n(C)c2nc(-c3ccccc3)ncc21)C1CCCCC1 [Example 43] | 20% | > 100 nM | –
11 | CN(C)C(=O)n1c(=O)n(C)c2nc(-c3ccncc3)ncc21 [Example 148, N,N,9-Trimethyl-8-oxo-2-(pyridin-4-yl)-8,9-dihydro-7H-purine-7-carboxamide] | 97% | 30 nM | –
12 | CN(Cc1ccccc1)C(=O)n1c(=O)n(C)c2nc(-c3ccccc3)ncc21 [Example 34, N-Benzyl-N,9-dimethyl-8-oxo-2-phenyl-8,9-dihydro-7H-purine-7-carboxamide] | 101% | 23 nM | –
13 | Cn1c(=O)n(C(=O)N2CCC2)c2nc(COc3ccccc3Cl)ncc21 [Example 427] | 92% | 19 nM | –
14 | COc1cccc(-c2ncc3c(n2)n(C)c(=O)n3C(=O)N(C)CCOc2cccc(Cl)c2)c1 [Example 90, N-[2-(3-Chlorophenoxy)ethyl]-2-(3-methoxyphenyl)-N,9-dimethyl-8-oxo-8,9-dihydro-7H-purine-7-carboxamide] | 105% | 2 nM | –
15 | COc1cccc(N2CCN(C(=O)n3c(=O)n(C)c4nc(-c5ccccc5)ncc43)CC2)n1 [Example 54, 7-{[4-(6-Methoxypyridin-2-yl)piperazine-1-yl]carbonyl}-9-methyl-2-phenyl-7,9-dihydro-8H-purine-8-one] | 99% | 24 nM | –
16 | CN(C)C(=O)n1c(=O)n(C)c2cnc(CCCOc3cccc(C(F)(F)F)c3)nc21 [Example 399] | 95% | 6 nM | –
17 | COc1cccc(-c2ncc3c(n2)n(C)c(=O)n3C(=O)N(C)CCCl)c1 [Example 103, N-(2-Chloroethyl)-2-(3-methoxyphenyl)-N,9-dimethyl-8-oxo-8,9-dihydro-7H-purine-7-carboxamide] | – | – | IC50 (FAAH Inhibition IC50, rat brain membrane preparations, test substance 0.1 nM to 1 μM): 7 nM; inhibition at 0.1 µM (read-out: FAAH Inhibition, Inhibition Rate at 100 nM): 100%
18 | CCN(C)C(=O)n1c(=O)n(C)c2nc(-c3cccnc3)ncc21 [Example 219, N-Ethyl-N,9-dimethyl-8-oxo-2-(pyridin-3-yl)-8,9-dihydro-7H-purine-7-carboxamide] | 96% | 9 nM | –
19 | CCN(C)C(=O)n1c(=O)n(C)c2nc(Cc3cccc(F)c3)ncc21 [Example 284, N-Ethyl-2-(3-fluorobenzyl)-N,9-dimethyl-8-oxo-8,9-dihydro-7H-purine-7-carboxamide] | 100% | 3 nM | –
20 | CN(C)C(=O)n1c(=O)n(C)c2cnc(-c3ccc(C(F)(F)F)cc3)nc21 [Example 326, N,N,7-Trimethyl-8-oxo-2-[4-(trifluoromethyl)phenyl]-7,8-dihydro-9H-purine-9-carboxamide] | 83% | 52 nM | –
21 | CN(C(=O)n1c(=O)n(C)c2nc(-c3ccccc3)ncc21)c1ccccc1 [Example 27] | 76% | 63 nM | –
22 | Cn1c(=O)n(C(=O)N2CCCC2)c2nc(Cc3c(F)cccc3F)ncc21 [Example 298, 2-(2,6-Difluorobenzyl)-7-methyl-9-(pyrrolidin-1-ylcarbonyl)-7,9-dihydro-8H-purine-8-one] | 98% | 48 nM | –
23 | COc1cccc(-c2ncc3c(n2)n(C)c(=O)n3C(=O)N2CCN(C3CCCC3)CC2)c1 [Example 98, 7-[(4-Cyclopentylpiperazin-1-yl)carbonyl]-2-(3-methoxyphenyl)-9-methyl-7,9-dihydro-8H-purine-8-one] | 93% | 40 nM | –
24 | CCc1ncc2c(n1)n(C(=O)N1CC(c3cccc(F)c3)C1)c(=O)n2C [Example 635] | – | – | inhibition at 0.1 µM [3]: 88%; IC50 [4]: 44 nM
25 | O=C(N1CCCC1)n1c(=O)n(Cc2ccccc2)c2nc(-c3ccccc3)ncc21 [Example 308] | 66% | 74 nM | –
26 | Cn1c(=O)n(C(=O)N2CCCC2)c2nc(-c3ccncc3)ncc21 [Example 252] | 40% | > 100 nM | –

Further lines, with some results ahead:

Row | inhibition at 0.1 µM [1] | IC50 [2] | Structure (SMILES) | also measured
27 | 89% | 24 nM | COc1ccc(Cc2ncc3c(n2)n(C)c(=O)n3C(=O)N2CCC2)cc1 [compound 376] | –
28 | 89% | 6 nM | COCc1ncc2c(n1)n(C)c(=O)n2C(=O)N1CC(c2ccc(F)cc2F)C1 [Example 454, 7-{[3-(2,4-Difluorophenyl)azetidin-1-yl]carbonyl}-2-(methoxymethyl)-9-methyl-7,9-dihydro-8H-purine-8-one] | –
29 | 90% | 12 nM | COCc1ncc2c(n1)n(C)c(=O)n2C(=O)N1CC(c2ccccc2Cl)C1 [Example 453, 7-{[3-(2-Chlorophenyl)azetidin-1-yl]carbonyl}-2-(methoxymethyl)-9-methyl-7,9-dihydro-8H-purine-8-one] | –
30 | 98% | 15 nM | CN(C)C(=O)n1c(=O)n(C)c2cnc(CCc3cccc(OCC(F)(F)F)c3)nc21 [Example 552, N,N,7-Trimethyl-8-oxo-2-{2-[3-(2,2,2-trifluoroethoxy)phenyl]ethyl}-7,8-dihydro-9H-purine-9-carboxamide] | –
31 | 99% | 21 nM | CCOc1cccc(-c2ncc3c(n2)n(C(=O)N2CCC2)c(=O)n3C)c1 [compound 346] | –
32 | 66% | 52 nM | CN(C)C(=O)n1c(=O)n(C)c2cnc(CCc3cccc(OCC(F)F)c3)nc21 [Example 530, 2-{2-[3-(2,2-Difluoroethoxy)phenyl]ethyl}-N,N,7-trimethyl-8-oxo-7,8-dihydro-9H-purine-9-carboxamide] | –
33 | 79% | 52 nM | Cn1c(=O)n(C(=O)N2CCC2)c2nc(-c3ccc(F)cc3)ncc21 [compound 354] | –
34 | 120% | 1 nM | COCc1ncc2c(n1)n(C)c(=O)n2C(=O)N1CC(c2ccc(OC(F)(F)F)cc2)C1 [Example 458, 2-(Methoxymethyl)-9-methyl-7-({3-[4-(trifluoromethoxy)phenyl]azetidin-1-yl}carbonyl)-7,9-dihydro-8H-purine-8-one] | –
35 | 102% | 7 nM | CC(=O)c1cccc(-c2ncc3c(n2)n(C)c(=O)n3C(=O)N2CCCC2)c1 [compound 186] | –
36 | 86% | 15 nM | CN(C)C(=O)n1c(=O)n(C)c2cnc(CCc3ccc(F)c(F)c3)nc21 [compound 496] | –
37 | 123% | 10 nM | Cn1c(=O)n(C(=O)N2CCC2)c2nc(COc3ccc(Cl)cc3)ncc21 [Example 428] | –
38 | 103% | 10 nM | CCCCOc1ccc(-c2ncc3c(n2)n(C(=O)N2CCC2)c(=O)n3C)cc1 [compound 349] | –
39 | 88% | 54 nM | Cc1cncc(-c2ncc3c(n2)n(C)c(=O)n3C(=O)N2CCCC2)c1 [compound 212] | –
